According to paper PMC10041525, “New Dual Inhibitors of Bacterial Topoisomerases with Broad-Spectrum Antibacterial Activity and In Vivo Efficacy against Vancomycin-Intermediate Staphylococcus aureus” (Journal of Medicinal Chemistry, 2023):
Converted amounts (≈) assume the structure as drawn.

Tests used:
physchem = conditions: pH 7.4
Procedure: 0.5 mL of 67 mM phosphate
(§2) in a rotational shaker (400 rpm) at 23 °C. After the incubation an aliquot of 200 µL was
(§3) 1 µL of the supernatant was transferred to 96-well plate in triplicate wells, diluted 100×
(§4) with acetonitrile/H2O (60/40) containing 50 nM warfarin as internal standard and analyzed
(§5) performed comparing to a separately constructed standard series (10 nM to 1000 nM).
(§6) shaker (900 rpm) at 37 °C. After the incubation an aliquot of 200 µL was transferred to a
(§7) conical glass insert and centrifuged for 30 min at 10 000 × g at 37 °C. The supernatant was
(§8) transferred to a new HPLC vial appropriately diluted (100×, 1000×, 5000×) with
(§9) acetonitrile/H2O (50/50) containing 50 nM warfarin as internal standard and analyzed by
(§10) performed comparing to a separately constructed standard curve between 3 nM to 20000

[1] = thermodynamic solubility in phosphate buffer, LC-MS/MS; conditions: 100 mM phosphate buffer pH 7.4, 24 h, 37 °C
Procedure: 0.5 mL of 67 mM phosphate
as §2, §3, §4, §5, §6, §7, §8, §9, §10

P. aeruginosa DNA gyrase = target: T1, P. aeruginosa DNA gyrase (Pseudomonas aeruginosa, UniProt Q9I7C2); assay: supercoiling HTS assay; format: biochemical
T1 construct: purchased Inspiralis
Procedure: The assay to determine IC50 values was performed using assay kits from Inspiralis in accordance with previously described procedures.[43] Seven concentrations of the inhibitors were used to determine IC50 values which were then calculated with GraphPad Prism 6.0 software. Three independent measurements were performed to determine IC50 values, and mean values are reported as the final result.

A. baumannii topo IV = A. baumannii topo IV (Acinetobacter baumannii, UniProt A0ABX6CMT0); assay: gel-based decatenation assay
Procedure: In all experiments, the activity of the
enzymes was determined prior to the testing of the compound and 1 unit (U) was defined as the
amount of enzyme required to just fully supercoil or decatenate the substrate. This amount of
enzyme was initially used in determination of control inhibitor activity. These experiments were
performed in duplicate. […] The final DMSO
concentration was 1% for all assays. All measurements were performed in quadruplicates. The
condition for each reaction were as follows:
− S. aureus gyrase supercoiling assay
1 U of S. aureus gyrase was incubated with 0.5 µg of relaxed pBR322 DNA in a 30 µL reaction at
magnesium acetate, 10 mM DTT, 2 mM ATP, 500 mM potassium glutamate and 0.05 mg/mL
− S. aureus topo IV decatenation assay
1 U of S. aureus topo IV was incubated with 20 µg kDNA in a 30 µL reaction at 37 °C for 30
mM ATP, 350 mM potassium glutamate and 0.05 mg/mL albumin.
− A. baumannii gyrase supercoiling assay
1 U of A. baumannii gyrase was incubated with 0.5 µg of relaxed pBR322 DNA in a 30 µL reaction
blue), before being loaded on a 1.0% TAE gel run at 80V for 2 hours. Bands were visualised by
ethidium bromide staining for 20 minutes and destaining for 20 minutes. Gels were scanned using
documentation equipment (GeneGenius, Syngene, Cambridge, UK) and % inhibition levels were
measured by determining the relative fluorescence of the supercoiled band using gel scanning
software. […]

[2] = test system: Chinese hamster ovary K1 cells; assay: in vitro micronucleus test
[3] = test system: A. baumannii BM4652 and NMI clinical isolates; assay: MIC, wild-type, efflux-defective and MDR clinical isolates; format: cell-based; conditions: Acinetobacter baumannii
hemolysis assay = format: cell-based; conditions: human, red blood cells, pH 7.4; read-out: Haemolysis
Procedure: RBCs were washed three times in Tyrode buffer (130 mM NaCl, 4 mM KCl, 2.8 mM Na acetate, 1 mM MgCl2, 10 mM HEPES, 10 mM glucose, 1 mM CaCl2, adjusted to pH 7.4) and resuspended in the same buffer. Final concentrations in the hemolysis assay were 100 μM compound, 1% DMSO, and 50% RBC, assayed in a 200 μL volume in a microtiter plate. The mixture was incubated at 37 °C for 45 min with shaking (250 rpm). After incubation, RBCs were removed by centrifugation, clear plasma was transferred to a fresh plate, and the amount of hemoglobin was measured using a spectrophotometer at 540 nm. The complete lysis control contained 2% Triton X-100 (in Tyrode buffer) instead of compound; the negative control contained Tyrode buffer but no compound. Percent hemolysis was calculated as: [Abs compound] – [Abs negative control]/[Abs complete lysis control] – [Abs negative control] × 100. Values greater than 1% hemolysis at 100 μM were regarded as a red flag.

[4] = target: T2, hERG potassium ion channel (Homo sapiens, UniProt Q12809); assay: patch-clamp on transfected CHO cells; format: cell-based
T2 construct: expressed in transfected cells; host or cells: CHO cells (stably transfected)
Procedure: (§1) hERG and NaV1.5 inhibition was measured with the patch-clamp method on stably transfected CHO cells according to previously described procedures.[34] […] The normalized hERG/NaV1.5 current is reported as mean ± standard error of the mean (SEM, N = 5–6).

[5] = target: T3, sodium Nav1.5 ion channel (Homo sapiens, UniProt Q14524); assay: patch-clamp on transfected CHO cells; format: cell-based
T3 construct: expressed in transfected cells; host or cells: CHO cells (stably transfected)
Procedure: as §1

in vitro = conditions: mouse
Procedure: The assay was performed in cryopreserved mouse hepatocytes. First, the vials were thawed, the suspension added to “thawing media” and centrifuged to pellet the hepatocytes. The cell pellet was resuspended in Williams medium E (Invitrogen A1217601). […] A mixture of midazolam, diclofenac, and bufuralol at 1 μM was used as a positive control. The incubation was carried out on a heater-shaker at 37 °C, in a 24-well Picoplate (round bottom, PerkinElmer), with total incubation volume of 700 μL. […] The plate was incubated at 37 °C for 60 s. A zero sample was taken by removing 100 μL to a 96-well plate, and the reaction was quenched by adding 100 μL of acetonitrile with 50 nM warfarin as the internal standard. […] The LC–MS/MS method was the same as described above in Chapter LogD Determination.

T2 sequence (Q12809 whole entry): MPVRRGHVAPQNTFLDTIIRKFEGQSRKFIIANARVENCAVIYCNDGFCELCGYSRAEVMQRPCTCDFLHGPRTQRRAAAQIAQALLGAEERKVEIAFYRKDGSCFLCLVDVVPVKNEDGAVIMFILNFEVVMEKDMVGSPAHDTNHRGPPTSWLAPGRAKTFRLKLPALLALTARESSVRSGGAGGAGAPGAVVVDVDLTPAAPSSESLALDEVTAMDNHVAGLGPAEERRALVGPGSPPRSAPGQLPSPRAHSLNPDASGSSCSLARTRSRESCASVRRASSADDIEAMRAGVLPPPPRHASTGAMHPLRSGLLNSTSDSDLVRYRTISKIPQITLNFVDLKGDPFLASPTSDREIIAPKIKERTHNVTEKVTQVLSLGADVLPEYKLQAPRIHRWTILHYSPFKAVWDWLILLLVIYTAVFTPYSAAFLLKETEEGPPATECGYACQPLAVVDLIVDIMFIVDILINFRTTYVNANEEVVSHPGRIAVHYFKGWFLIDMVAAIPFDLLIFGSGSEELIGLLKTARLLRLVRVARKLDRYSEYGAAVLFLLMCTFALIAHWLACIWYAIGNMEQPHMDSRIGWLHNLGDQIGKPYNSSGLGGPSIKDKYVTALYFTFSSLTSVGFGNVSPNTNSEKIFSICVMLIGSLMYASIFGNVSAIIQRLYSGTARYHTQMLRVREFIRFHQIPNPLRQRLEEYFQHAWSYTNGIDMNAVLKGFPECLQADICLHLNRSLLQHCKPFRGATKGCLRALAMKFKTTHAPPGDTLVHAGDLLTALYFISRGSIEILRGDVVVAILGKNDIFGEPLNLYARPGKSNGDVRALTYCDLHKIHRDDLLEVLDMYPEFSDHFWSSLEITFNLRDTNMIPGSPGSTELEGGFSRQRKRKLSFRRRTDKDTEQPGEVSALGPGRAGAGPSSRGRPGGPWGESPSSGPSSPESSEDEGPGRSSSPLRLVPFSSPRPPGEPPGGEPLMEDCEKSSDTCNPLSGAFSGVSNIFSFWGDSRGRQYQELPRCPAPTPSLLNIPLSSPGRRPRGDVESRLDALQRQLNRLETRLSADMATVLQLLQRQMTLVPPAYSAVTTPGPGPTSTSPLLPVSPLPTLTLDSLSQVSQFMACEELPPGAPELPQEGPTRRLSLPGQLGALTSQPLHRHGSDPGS
T3 sequence (Q14524 whole entry): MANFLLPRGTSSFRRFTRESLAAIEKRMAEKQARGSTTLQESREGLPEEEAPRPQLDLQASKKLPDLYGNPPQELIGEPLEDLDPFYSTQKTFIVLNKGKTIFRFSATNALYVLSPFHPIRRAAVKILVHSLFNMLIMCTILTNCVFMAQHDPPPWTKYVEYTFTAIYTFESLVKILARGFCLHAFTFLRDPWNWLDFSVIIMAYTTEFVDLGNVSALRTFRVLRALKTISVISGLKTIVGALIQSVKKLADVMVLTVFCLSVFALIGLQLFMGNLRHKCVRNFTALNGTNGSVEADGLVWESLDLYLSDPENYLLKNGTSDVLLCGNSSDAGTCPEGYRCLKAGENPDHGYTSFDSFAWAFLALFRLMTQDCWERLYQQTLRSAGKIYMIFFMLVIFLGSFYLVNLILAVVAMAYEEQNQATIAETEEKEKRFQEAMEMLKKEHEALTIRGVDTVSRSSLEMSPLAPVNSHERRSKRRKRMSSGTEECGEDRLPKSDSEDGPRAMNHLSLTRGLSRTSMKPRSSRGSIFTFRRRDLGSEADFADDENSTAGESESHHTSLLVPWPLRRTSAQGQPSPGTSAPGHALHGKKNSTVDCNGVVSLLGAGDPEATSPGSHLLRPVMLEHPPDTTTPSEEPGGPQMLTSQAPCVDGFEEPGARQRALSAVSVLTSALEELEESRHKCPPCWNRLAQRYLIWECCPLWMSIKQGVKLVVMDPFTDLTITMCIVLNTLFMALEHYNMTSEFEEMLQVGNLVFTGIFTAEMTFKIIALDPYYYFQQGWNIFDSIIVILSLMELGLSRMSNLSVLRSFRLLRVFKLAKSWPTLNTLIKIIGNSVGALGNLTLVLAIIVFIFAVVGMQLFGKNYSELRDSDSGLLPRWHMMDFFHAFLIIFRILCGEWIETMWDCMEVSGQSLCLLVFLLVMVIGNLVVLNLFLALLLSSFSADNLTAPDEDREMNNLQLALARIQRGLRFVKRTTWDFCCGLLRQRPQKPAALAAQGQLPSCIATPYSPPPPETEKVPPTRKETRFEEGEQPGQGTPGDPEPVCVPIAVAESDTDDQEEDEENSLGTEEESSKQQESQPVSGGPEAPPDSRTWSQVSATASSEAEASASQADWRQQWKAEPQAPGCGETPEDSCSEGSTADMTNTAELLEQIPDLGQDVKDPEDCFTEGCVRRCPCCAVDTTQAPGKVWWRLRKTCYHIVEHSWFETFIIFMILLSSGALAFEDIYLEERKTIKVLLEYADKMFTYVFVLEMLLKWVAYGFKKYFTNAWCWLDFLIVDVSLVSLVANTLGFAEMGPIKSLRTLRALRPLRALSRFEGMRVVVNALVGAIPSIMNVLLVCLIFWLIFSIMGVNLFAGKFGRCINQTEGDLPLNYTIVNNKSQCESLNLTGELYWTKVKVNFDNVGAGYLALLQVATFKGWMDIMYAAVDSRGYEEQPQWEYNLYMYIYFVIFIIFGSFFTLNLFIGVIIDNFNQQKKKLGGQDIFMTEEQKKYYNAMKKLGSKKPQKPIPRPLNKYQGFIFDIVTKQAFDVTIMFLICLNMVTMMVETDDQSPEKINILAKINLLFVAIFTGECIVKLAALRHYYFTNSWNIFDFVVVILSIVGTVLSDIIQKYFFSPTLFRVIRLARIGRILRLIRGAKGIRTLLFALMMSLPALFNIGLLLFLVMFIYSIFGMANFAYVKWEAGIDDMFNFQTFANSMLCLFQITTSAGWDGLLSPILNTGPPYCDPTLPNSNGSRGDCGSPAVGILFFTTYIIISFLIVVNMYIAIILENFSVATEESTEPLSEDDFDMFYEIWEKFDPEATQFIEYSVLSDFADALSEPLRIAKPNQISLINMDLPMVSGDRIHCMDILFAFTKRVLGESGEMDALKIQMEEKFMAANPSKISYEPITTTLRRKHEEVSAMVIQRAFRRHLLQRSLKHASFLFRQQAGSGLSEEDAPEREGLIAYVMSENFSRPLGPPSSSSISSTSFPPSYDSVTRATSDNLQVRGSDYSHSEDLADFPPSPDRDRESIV

Cc1[nH]c(C(=O)Nc2nc3c(N4CCOCC4)cc(C(=O)O)cc3s2)c(Cl)c1Cl [7a, 2-(3,4-Dichloro-5-methyl-1H-pyrrole-2-carboxamido)-4-morpholinobenzo[d]thiazole-6-carboxylic Acid]
solubility thermodynamic at 24 h (physchem): 168 µM (≈ 76.5 µg/mL) | thermodynamic solubility, second method [1]: 167.9 µM (≈ 76.4 µg/mL) | IC50 (P. aeruginosa DNA gyrase): < 10 nM | IC50 (A. baumannii topo IV): 120 ± 8.34 nM | % Micronuclei ([2]; with S9, 25 µM): 2.7% | No. binucleate cells ([2]; with S9, 25 µM): 1707 | % Cytostasis ([2]; with S9, 50 µM): 1.4% | % Micronuclei ([2]; with S9, 50 µM): 4.5% | No. binucleate cells ([2]; with S9, 50 µM): 1296 | % Cytostasis ([2]; with S9, 100 µM): tox | genotoxic concentration (no genotoxicity up to) ([2]; with S9 activation): > 50 µM | % Micronuclei ([2]; without S9, 6.25 µM): 2.8% | No. binucleate cells ([2]; without S9, 6.25 µM): 3160 | % Micronuclei ([2]; without S9, 25 µM): 2.5% | No. binucleate cells ([2]; without S9, 25 µM): 2644 | % Cytostasis ([2]; without S9, 50 µM): 0.1% | % Micronuclei ([2]; without S9, 50 µM): 4.4% | No. binucleate cells ([2]; without S9, 50 µM): 1687 | % Cytostasis ([2]; without S9, 100 µM): 40.8% | % Micronuclei ([2]; without S9, 100 µM): 7% | No. binucleate cells ([2]; without S9, 100 µM): 642 | % Micronuclei ([2]; without S9, […]): 2.7% | genotoxic concentration (no genotoxicity up to) ([2]; without metabolic activation): > 100 µM | MIC ([3]; A. baumannii BM4652, efflux-defective): < 0.125 µg/mL | MIC ([3]; A. baumannii NMI 2692/14, clinical MDR): 1 µg/mL (≈ 2.2 µM) | MIC ([3]; A. baumannii NMI 2699/14, clinical MDR): 1 µg/mL (≈ 2.2 µM) | MIC ([3]; A. baumannii NMI 2704/14, clinical MDR): 1 µg/mL (≈ 2.2 µM) | hemolysis at 45 min, 100 μM (hemolysis assay): 0.28 ± 0.01% | inhibition of hERG ([4]; 50 µM): no significant inhibition | hERG current fraction (normalized to neg. control) ([4]; 50 µM 7a, mean ± SEM): 1.01 ± 0.02 | inhibition of Nav1.5 ([5]; 10 µM): no significant inhibition | Nav1.5 current fraction (normalized to neg. control) ([5]; 10 µM 7a, mean ± SEM): 0.97 ± 0.03 | ClH (pred.) (in vitro): 0.05 mL/min | Clint (pred. in vivo) (in vitro; hepatocytes): 2.1 mL/min | half-life at 1.5 h, 1 µM (in vitro; hepatocytes): 2.67 h | hepatocyte CLint at 1.5 h, 1 µM (in vitro; hepatocytes): 9 µL/min/1e6 cells
